Reference: patent publication US10183946B2, “Triazolo[4,5-D]pyrimidines” (Hoffmann—La Roche Inc., priority 2014, dated 2019)

Experiments:
human CB1 receptors = human CB1 receptors (Homo sapiens (Human), UniProt P21554); assay: cAMP assay, CHO cells expressing human CB1 receptors; type: cell-based; conditions: functional cAMP assay, CHO cells expressing human CB1; read-out: CB1 hcAMP EC50
Method: (§1) CHO cells expressing human CB1 or CB2 receptors are seeded 17-24 hours prior to the experiment 50.000 cells per well in a black 96 well plate with flat clear bottom (Corning Costar #3904) in DMEM (Invitrogen No. 31331), 1×HT supplement, with 10% fetal calf serum and incubated at 5% CO2 and 37° C. in a humidified incubator. The growth medium was exchanged with Krebs Ringer Bicarbonate buffer with 1 mM IBMX and incubated at 30° C. for 30 min. Compounds were added to a final assay volume of 100 μl and incubated for 30 min at 30° C. Using the cAMP-Nano-TRF detection kit the assay (Roche Diagnostics) was stopped by the addition of 50 μl lysis reagent (Tris, NaCl, 1.5% Triton X100, 2.5% NP40, 10% NaN3) and 50 μl detection solutions (20 μM mAb Alexa700-cAMP 1:1, and 48 μM Ruthenium-2-AHA-cAMP) and shaken for 2 h at room temperature. The time-resolved energy transfer is measured by a TRF reader (Evotec Technologies GmbH), equipped with a ND:YAG laser as excitation source. The plate is measured twice with the excitation at 355 nm and at the emission with a delay of 100 ns and a gate of 100 ns, total exposure time 10 s at 730 (bandwidth 30 nm) or 645 nm (bandwidth 75 nm), respectively. The FRET signal is calculated as follows: FRET=T730-Alexa730-P(T645-B645) with P=Ru730-B730/Ru645-B645, where T730 is the test well measured at 730 nM, T645 is the test well measured at 645 nm, B730 and B645 are the buffer controls at 730 nm and 645 nm, respectively. cAMP content is determined from the function of a standard curve spanning from 10 μM to 0.13 nM cAMP.
(§2) EC50 values were determined using Activity Base analysis (ID Business Solution, Limited). The EC50 values for a wide range of cannabinoid agonists generated from this assay were in agreement with the values published in the scientific literature.

human CB2 receptors = human CB2 receptors (Homo sapiens (Human), UniProt P34972); assay: cAMP assay, CHO cells expressing human CB2 receptors; type: cell-based; conditions: functional cAMP assay, read-out: CB2 hcAMP EC50
Sequence of human CB2 receptors (P34972 whole entry): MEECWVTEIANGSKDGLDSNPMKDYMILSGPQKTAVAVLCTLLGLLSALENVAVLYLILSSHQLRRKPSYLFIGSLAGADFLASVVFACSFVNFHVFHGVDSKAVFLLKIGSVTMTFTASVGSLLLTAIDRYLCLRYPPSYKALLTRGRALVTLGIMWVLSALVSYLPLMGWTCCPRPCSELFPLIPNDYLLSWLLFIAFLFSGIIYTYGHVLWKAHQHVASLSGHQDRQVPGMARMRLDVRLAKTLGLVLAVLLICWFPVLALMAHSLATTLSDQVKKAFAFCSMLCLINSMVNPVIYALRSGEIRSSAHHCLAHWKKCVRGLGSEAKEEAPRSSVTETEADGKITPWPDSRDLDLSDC
Method: as §1, §2

Sequence of human CB1 receptors (P21554 whole entry): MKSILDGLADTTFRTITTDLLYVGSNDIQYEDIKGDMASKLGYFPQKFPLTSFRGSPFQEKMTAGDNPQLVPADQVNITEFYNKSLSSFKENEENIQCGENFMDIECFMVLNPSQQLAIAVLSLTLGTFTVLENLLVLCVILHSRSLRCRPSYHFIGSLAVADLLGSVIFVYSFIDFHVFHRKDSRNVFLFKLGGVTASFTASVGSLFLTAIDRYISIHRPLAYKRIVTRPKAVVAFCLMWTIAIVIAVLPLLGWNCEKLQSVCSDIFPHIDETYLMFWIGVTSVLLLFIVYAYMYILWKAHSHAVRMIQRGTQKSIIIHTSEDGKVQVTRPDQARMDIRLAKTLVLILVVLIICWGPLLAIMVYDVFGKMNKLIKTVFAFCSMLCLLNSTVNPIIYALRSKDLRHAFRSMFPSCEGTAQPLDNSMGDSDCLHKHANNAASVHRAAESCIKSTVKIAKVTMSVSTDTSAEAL

Row | Compound | EC50 (human CB1 receptors) | EC50 (human CB2 receptors)
1 | Cn1nccc1-c1nc(C(C)(C)C)nc2c1nnn2CC(O)CC(F)(F)F (stereo not drawn) [Example 16, 1-[5-tert-butyl-7-(2-methylpyrazol-3-yl)triazolo[4,5-d]pyrimidin-3-yl]-4,4,4-trifluorobutan-2-ol] | > 10000 nM | 42.4 nM
2 | Cn1nccc1-c1nc(C(C)(C)C)nc2c1nnn2C1COC1 [Example 19, 5-tert-butyl-7-(2-methylpyrazol-3-yl)-3-(oxetan-3-yl)triazolo[4,5-d]pyrimidine] | > 10000 nM | 190 nM
3 | Cc1oncc1-c1nc(C(C)(C)C)nc2c1nnn2Cc1ccccc1Cl [Example 11, 4-[5-tert-butyl-3-[(2-chlorophenyl)methyl]triazolo[4,5-d]pyrimidin-7-yl]-5-methyl-1,2-oxazole] | > 10000 nM | 76.5 nM
4 | Cc1ccc(-c2nc(C(C)(C)C)nc3c2nnn3Cc2ccccc2Cl)cc1 [Example 1, 5-tert-butyl-3-[(2-chlorophenyl)methyl]-7-(4-methylphenyl)triazolo[4,5-d]pyrimidine] | > 10000 nM | 206 nM
5 | Cn1nnnc1Cn1nnc2c(-c3cnnn3Cc3ccccc3)nc(C(C)(C)C)nc21 [Example 29, 7-(3-benzyltriazol-4-yl)-5-tert-butyl-3-[(1-methyltetrazol-5-yl)methyl]triazolo[4,5-d]pyrimidine] | > 10000 nM | 16.6 nM
6 | Cc1nonc1Cn1nnc2c(-c3ccnn3C)nc(C(C)(C)C)nc21 [Example 14, 3-[[5-tert-butyl-7-(2-methylpyrazol-3-yl)triazolo[4,5-d]pyrimidin-3-yl]methyl]-4-methyl-1,2,5-oxadiazole] | > 10000 nM | 1.3 nM
7 | CC(C)(C)c1nc(C2CCCC2)c2nnn(Cc3ccccc3)c2n1 [Example 45b, 3-benzyl-5-tert-butyl-7-cyclopentyl-triazolo[4,5-d]pyrimidine] | > 10000 nM | 30 nM
8 | CCC(O)(CC)c1nc(C(C)(C)C)nc2c1nnn2Cc1ccccc1Cl [Example 38, 3-[5-tert-Butyl-3-[(2-chlorophenyl)methyl]triazolo[4,5-d]pyrimidin-7-yl]pentan-3-ol] | > 10000 nM | 45.3 nM
9 | Cn1nccc1-c1nc(C(C)(C)C)nc2c1nnn2CC(C)(C)O [Example 22, 1-[5-tert-butyl-7-(2-methylpyrazol-3-yl)triazolo[4,5-d]pyrimidin-3-yl]-2-methylpropan-2-ol] | > 10000 nM | 206 nM
10 | Cn1cc(-c2nc(C(C)(C)C)nc3c2nnn3Cc2nnnn2C)cn1 [Example 24, 5-tert-butyl-7-(1-methylpyrazol-4-yl)-3-[(1-methyltetrazol-5-yl)methyl]triazolo[4,5-d]pyrimidine] | > 10000 nM | 156 nM
11 | CC(C)(C)c1nc(C2(O)CCC2)c2nnn(Cc3ccccc3Cl)c2n1 [Example 33, 1-[5-tert-Butyl-3-[(2-chlorophenyl)methyl]triazolo[4,5-d]pyrimidin-7-yl]cyclobutanol] | > 10000 nM | 233 nM
12 | CC(C)(C)c1nc(C2(F)CCC2)c2nnn(Cc3ccccc3)c2n1 [Example 32, 3-Benzyl-5-tert-butyl-7-(1-fluorocyclobutyl)triazolo[4,5-d]pyrimidine] | > 10000 nM | 24 nM
13 | Cn1nnnc1Cn1nnc2c(-c3cn[nH]c3)nc(C(C)(C)C)nc21 [Example 25, 5-tert-butyl-3-[(1-methyltetrazol-5-yl)methyl]-7-(1H-pyrazol-4-yl)triazolo[4,5-d]pyrimidine] | > 10000 nM | 32 nM
14 | Cn1cc(-c2nc(C(C)(C)C)nc3c2nnn3Cc2ccccc2Cl)cn1 [Example 8, 5-tert-butyl-3-[(2-chlorophenyl)methyl]-7-(1-methylpyrazol-4-yl)triazolo[4,5-d]pyrimidine] | > 10000 nM | 17.4 nM
15 | CC(C)(C)c1nc(C2(O)CCCCC2)c2nnn(Cc3ccccc3Cl)c2n1 [Example 35, 1-[5-tert-Butyl-3-[(2-chlorophenyl)methyl]triazolo[4,5-d]pyrimidin-7-yl]cyclohexanol] | > 10000 nM | 172 nM
